Where two headings read alike, the source gives them in different places.

Assay [1] relates to Karpas 422 cells (EZH2 Y641N). Description: Karpas 422 cell viability (Cell Titre Glo). The assay is classed as cell-based, human. The conditions noted are these: Day 4, Day 7 or Day 11 (time point not given), read-out: IC50 (nM), Inhibiting Proliferation of Cells Expressing an Activating Mutant Form of EZH2. The procedure: Karpas 422 cell line is a human B cell non-Hodgkin's lymphoma cell line established from a patient having DLBCL. This EZH2 heterozygotic cell line expresses a mutant form of EZH2 enzyme (Y641N) that increases histone H3 methylation and this mutation has been implicated in the tumorgenesis of lymphomas, such as DLBCL.
Karpas 422 cells (PHE cat no.,06101702) were cultured in RPMI medium supplemented with 20% fetal bovine serum and 1% penicillin/1% streptomycin and plated at a density of 1000 cells/90 μl/well in 96 well white assay plates. A dose response curve for compounds of the present invention was determined by adding a 10 μl aliquot of stock solutions of varying concentrations of compounds to the same medium in each well, over a concentration range of 10 μM using 3-fold dilutions to a final concentration of 1.5 nM. The plates were incubated at 37° C. for predetermined time periods, Day 4, Day 7, or Day 11, and the viability of the cells was measured using a CTG assay kit (Cell Titre Glo; Promega cat. no G7573) on Day 4 and Day 7 in accordance with the manufacturer's instructions.
For the viability assay for the Day 11 plates, the plates were subjected to centrifugation at 1100 rpm for five minutes on Day 7 and the supernatant was removed by aspiration. The cells were resuspended in 90 μl aliquot of the appropriate growth medium lacking the compound followed by addition of 10 μl of a 10× stock of the same compound at the same concentration. The viability of the Day 11 cells was measured using the CTG assay kit described above in accordance with the manufacturer's instructions. The IC50 values for each compound at each predetermined time point were calculated using Graph pad PRISM software and the results are shown in Table 15. A=≤250 nM; B=<250 nM-≤500 nM; and C=>500 nM.

For assay [2], the system named is PRC2-mediated histone H3 Lys27 trimethylation in Pfeiffer cells (EZH2 A677G). Put plainly: Tri-Methyl Histone H3 (Lys 27) sandwich ELISA in Pfeiffer cells. The class given is cell-based, human. To be noted: 96 hours incubation, read-out: IC50 (nM), Inhibition of EZH2-mediated Histone H3 Trimethylation. From the text:
The Pfeiffer cell line was established from a […] from a patient having metastatic diffuse large B-cell lymphoma (DLBCL). This cell line expresses a mutant form of the EZH2 enzyme (A677G) that results in enhanced EZH2 activity leading to increased methylation of histone H3 Lys27. Increased trimethylation of histone H3 Lys27 is believed to be implicated in tumorgenesis and poor clinical prognosis in lymphomas (McCabe et al., (2012) Nature 492:108-112).
Inhibition of PRC2-mediated histone H3 methylation by compounds of Formula (I) was measured by ELISA using a Tri-Methyl Histone H3 (Lys 27) Sandwich ELISA Kit (Cell Signaling Tech #7866C) in accordance with the manufacturer's instructions. Briefly, Pfeiffer cells were cultured in RPMI medium supplemented with 10% fetal bovine serum and 1% penicillin and 1% streptomycin in 96 well culture plates at 37° C. to a density of 8000 cells/90 μl/well and the cells were harvested. A series of 3-fold serial dilutions of each test compound of Formula (I) were prepared in RPMI medium and added to the cells at final concentrations ranging from 1 μM to 0.15 nM. The plates were incubated at 37° C. for 96 hours.
After incubation, the cells were pelleted by centrifugation in a pre-cooled 4° C. rotor at 1,100 rpm for 10 min and the supernatant was removed by aspiration. The cell pellet was resuspended in 55 μl of Lysis Buffer (0.4M HCl) and incubated on ice with periodic shaking for 30 minutes. The lysed cells were subjected to centrifugation at 4,200 rpm for 10 min at 4° C. and the supernatant containing acid-soluble proteins was collected and the remainder discarded. The acid-soluble proteins were brought to a neutral pH by the addition of 20 μl of Neutralization Buffer (1 M Sodium phosphate, dibasic (pH 12.5), 2.5 mM DTT and 1 mM PMSF) and the neutralized lysates were analyzed by ELISA.
A 65 μl aliquot of each cell lysate was added to a well of a microwell strip, the microwells were sealed using tape and incubated either at 37° C. for two hours or at 4° C. overnight. After incubation, the tape was removed at the microwells were washed four times using 200 μl of 1× Wash Buffer. To each washed microwell, a 100 μl aliquot of an anti-trimethyl histone H3 Lys27 Detection Antibody solution was added and the microwells were incubated at 37° C. for one hour. […]
A 100 μl aliquot of an HRP-linked secondary antibody was added to each well, the wells were sealed with tape and incubated at 37° C. for 30 min. […] The degree of histone H3 trimethylation was determined using a spectrophotometric readout by measuring the absorbance at 450 nm and then calculating the amount of trimethylated histone H3. A=≤100 nM; B=>100 nM-≤500 nM; C=>500 nM and N.D.=not determined.

In assay [3] the target is purified human, His-tagged PRC2 complex (Homo sapiens (Human), UniProt O75530). Put plainly: Hot Spot HMT assay of PRC2 enzymatic activity. The assay is classed as biochemical. To be noted: 10 nM PRC2 complex, core histone H3, 1 uM 3H-SAM, 1 hr at 30° C; read-out: IC50, Inhibition of PRC2-mediated Enzymatic Activity.
purified human, His-tagged PRC2 complex, sequence (Q15910 whole entry): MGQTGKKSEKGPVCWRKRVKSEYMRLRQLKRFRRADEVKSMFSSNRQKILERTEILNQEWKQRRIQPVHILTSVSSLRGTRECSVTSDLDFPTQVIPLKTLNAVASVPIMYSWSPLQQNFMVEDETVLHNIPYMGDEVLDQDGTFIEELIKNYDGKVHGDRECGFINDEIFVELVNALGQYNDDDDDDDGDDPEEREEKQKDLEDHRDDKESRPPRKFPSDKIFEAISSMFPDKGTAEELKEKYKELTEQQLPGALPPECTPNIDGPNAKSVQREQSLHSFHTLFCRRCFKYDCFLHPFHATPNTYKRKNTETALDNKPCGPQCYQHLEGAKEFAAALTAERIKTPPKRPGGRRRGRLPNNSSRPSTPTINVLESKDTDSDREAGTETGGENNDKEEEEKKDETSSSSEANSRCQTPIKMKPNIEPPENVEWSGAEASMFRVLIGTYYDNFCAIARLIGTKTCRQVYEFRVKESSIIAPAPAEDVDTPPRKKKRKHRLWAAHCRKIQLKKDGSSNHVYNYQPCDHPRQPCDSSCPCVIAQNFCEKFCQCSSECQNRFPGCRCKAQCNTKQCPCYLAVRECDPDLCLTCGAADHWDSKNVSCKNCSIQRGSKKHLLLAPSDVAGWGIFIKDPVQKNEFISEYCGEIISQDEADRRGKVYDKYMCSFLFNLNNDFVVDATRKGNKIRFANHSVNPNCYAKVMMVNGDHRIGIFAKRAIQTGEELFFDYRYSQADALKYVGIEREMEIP
purified human, His-tagged PRC2 complex, sequence (O75530 whole entry): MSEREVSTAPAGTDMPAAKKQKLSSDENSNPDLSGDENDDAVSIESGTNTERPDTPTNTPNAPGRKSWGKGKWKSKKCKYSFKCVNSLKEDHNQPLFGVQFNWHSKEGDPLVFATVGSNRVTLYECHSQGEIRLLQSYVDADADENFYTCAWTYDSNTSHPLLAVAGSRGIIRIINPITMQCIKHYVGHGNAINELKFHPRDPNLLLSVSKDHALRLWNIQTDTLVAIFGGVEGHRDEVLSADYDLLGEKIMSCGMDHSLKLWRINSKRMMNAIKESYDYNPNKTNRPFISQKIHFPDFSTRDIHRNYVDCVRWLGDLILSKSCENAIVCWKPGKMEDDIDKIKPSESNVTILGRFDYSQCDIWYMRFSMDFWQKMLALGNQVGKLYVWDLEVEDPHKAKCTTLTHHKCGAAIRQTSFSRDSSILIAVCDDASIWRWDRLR
purified human, His-tagged PRC2 complex, sequence (Q15022 whole entry partner): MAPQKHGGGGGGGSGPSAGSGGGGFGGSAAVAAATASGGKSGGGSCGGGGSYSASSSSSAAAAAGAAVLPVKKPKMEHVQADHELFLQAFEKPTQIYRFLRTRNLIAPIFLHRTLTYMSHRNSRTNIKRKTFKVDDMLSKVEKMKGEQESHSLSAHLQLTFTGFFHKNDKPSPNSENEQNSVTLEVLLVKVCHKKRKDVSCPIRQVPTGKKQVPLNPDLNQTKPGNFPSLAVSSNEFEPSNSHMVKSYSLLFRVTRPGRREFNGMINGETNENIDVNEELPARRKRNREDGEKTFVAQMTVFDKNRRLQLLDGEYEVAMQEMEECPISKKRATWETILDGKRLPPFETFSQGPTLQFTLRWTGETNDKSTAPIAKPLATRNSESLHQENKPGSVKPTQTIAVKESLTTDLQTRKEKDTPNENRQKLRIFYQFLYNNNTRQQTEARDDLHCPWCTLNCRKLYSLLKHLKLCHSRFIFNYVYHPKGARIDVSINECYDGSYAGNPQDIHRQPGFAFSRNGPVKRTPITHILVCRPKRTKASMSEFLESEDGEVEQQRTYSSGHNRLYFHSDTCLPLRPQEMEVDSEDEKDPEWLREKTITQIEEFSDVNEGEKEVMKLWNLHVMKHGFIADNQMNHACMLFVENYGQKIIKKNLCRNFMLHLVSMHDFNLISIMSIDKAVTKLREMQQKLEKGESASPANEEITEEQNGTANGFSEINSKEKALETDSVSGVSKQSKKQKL
purified human, His-tagged PRC2 complex, sequence (Q6ZN18 whole entry partner): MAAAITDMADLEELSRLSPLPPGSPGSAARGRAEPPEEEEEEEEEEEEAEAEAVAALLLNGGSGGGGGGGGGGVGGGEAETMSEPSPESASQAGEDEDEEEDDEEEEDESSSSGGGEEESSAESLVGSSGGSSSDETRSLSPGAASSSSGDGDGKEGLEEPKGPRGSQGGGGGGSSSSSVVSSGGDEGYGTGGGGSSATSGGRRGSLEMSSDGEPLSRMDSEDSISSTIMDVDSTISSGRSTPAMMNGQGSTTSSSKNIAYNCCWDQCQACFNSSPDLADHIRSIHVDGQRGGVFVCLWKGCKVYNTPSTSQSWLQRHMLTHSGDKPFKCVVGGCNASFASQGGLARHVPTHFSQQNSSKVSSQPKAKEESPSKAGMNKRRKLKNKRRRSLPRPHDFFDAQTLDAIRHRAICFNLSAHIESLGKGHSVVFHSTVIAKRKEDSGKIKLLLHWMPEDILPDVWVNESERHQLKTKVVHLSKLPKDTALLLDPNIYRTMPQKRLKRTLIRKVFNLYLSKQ
purified human, His-tagged PRC2 complex, sequence (Q09028 whole entry partner): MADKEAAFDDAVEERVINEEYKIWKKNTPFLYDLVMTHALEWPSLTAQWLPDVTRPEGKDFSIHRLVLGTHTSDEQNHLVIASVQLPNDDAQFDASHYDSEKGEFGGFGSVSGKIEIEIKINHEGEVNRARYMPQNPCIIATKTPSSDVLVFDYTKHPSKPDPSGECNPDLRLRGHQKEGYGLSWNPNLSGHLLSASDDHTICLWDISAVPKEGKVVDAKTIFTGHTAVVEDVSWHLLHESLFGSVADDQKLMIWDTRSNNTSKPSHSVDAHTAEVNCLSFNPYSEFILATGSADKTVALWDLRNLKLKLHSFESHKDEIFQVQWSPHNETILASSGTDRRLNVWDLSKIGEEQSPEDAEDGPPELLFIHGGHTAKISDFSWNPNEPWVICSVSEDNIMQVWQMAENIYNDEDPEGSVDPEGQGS
Text: The assay uses purified human, His-tagged PRC2 complex, including N-terminal His-tagged EZH2 enzyme, N-terminal Flag-tagged embryonic ectoderm development protein (EED), N-terminal His-tagged suppressor of zeste 12 (SUZ12), N-terminal His-tagged AEBP2, and N-terminal His-tagged RbAp48. In this assay, the transfer of the tritiated methyl group from radiolabeled S-adenosyl methionine (SAM) to purified core histone protein by EZH2 is quantitated after filtration to determine the activity of the core PRC2 complex in the presence and absence of compound.
The initial starting concentration for the serial dilutions of each compound was 1.0 μM. […] SAH (S-(5-adenosyl)-L-homocysteine) was used as a positive control for assay validation.
An aliquot of each serial dilution of test compound was added to deep 384 well plate using Acoustic Technology instrument (Echo 550, LabCyte) containing reaction buffer (50 mM Tris-HCl (pH 8.)), 0.01% Brij35, 1 mM EDTA, 1 mM DTT, 1 mM PMSF and 1% DMSO), 10 nM purified PRC2 complex and 0.05 mg/ml core histone H3 in a 5 μl volume. The reaction was mixed gently and then pre-incubated for 20 min at 30° C. […] After 1 hr, the reaction product was detected using a filter binding method and the amount of tritiated H3 core histone was quantitated using a scintillation counter.

Regarding `N#Cc1cn2c(NCc3c(F)ccc4c3CCO4)ncc(-c3cnc(C4CC4)cn3)c2n1` [Example 70], the IC50 in assay [1] (Homo sapiens) was no more than 250 nM; in assay [2] (Homo sapiens) it was less than 100 nM; in assay [3], less than 100 nM.

As to `CN1CCC1c1ccc(-c2cnc(NCc3c(F)ccc4c3CCO4)n3cc(C#N)nc23)cc1` (stereo not drawn) [Example 221], the results for the IC50 in assay [1] (Homo sapiens) and in assay [2] (Homo sapiens) were no more than 250 nM and 100 to 500 nM, respectively.

For the molecule `N#Cc1cn2c(NCc3c(F)ccc4c3CCO4)ncc(-c3cnn(CC4CCOC4)c3)c2n1` (stereo not drawn) [compound 154], the IC50 in assay [1] fell in the range of 250 to 500 nM; in assay [2] it was 100 to 500 nM.

With `Cc1nc(N2CCOCC2)ccc1-c1cnc(NCc2c(F)ccc3c2CCO3)n2cc(C#N)nc12` [Example 56], the IC50 in assay [1] (Homo sapiens) was no more than 250 nM; in assay [2] (Homo sapiens), 100 to 500 nM.
